What was measured:
Assay type in all cases: in vivo, human
multiple myeloma [1] = assay: Phase 2 clinical study M34100-025 (second or greater relapse, refractory to last prior therapy); conditions: bortezomib alone
Text: (§1) See Richardson P G, et al. N Engl J Med., 348:2609-17 (2003). […] See Jagannath, Br J Haematol. 127:165-72 (2004). Patient samples and response criteria from patients participating in these studies, as well as the following additional studies described below were sought for use in pharmacogenomic analyses to identify markers associated with patient survival.

[2] = test system: relapsed multiple myeloma; assay: Phase 2 clinical study M34100-024 (first relapse)
Text: as §1

[3] = test system: relapsed or refractory multiple myeloma; assay: Open-label randomized study of bortezomib versus high-dose dexamethasone (Protocol M34101-039); conditions: for survival: 22 month median follow-up, 44% events occurred; for One-year survival: in vivo
Protocol: A multicenter, open-label, randomized study was conducted, comprising 627 enrolled patients with relapsed or refractory multiple myeloma (Protocol M34101-039). See Richardson et. al., N. Engl. J. Med., 352:2487-2498 (2005).
Randomization was to be stratified, based on the number of lines of prior therapy (one prior line versus more than one prior line of therapy), time of progression relative to treatment (progression while on their most recent therapy or within 6 months of stopping their most recent therapy, or relapse >6 months after receiving their most recent therapy), and screening β2-microglobulin levels (>2.5 mg/L versus ≦2.5 mg/L).
Patients assigned to the high-dose dexamethasone group received treatment for a maximum of 280 days. Patients in this treatment group received up to four 5-week treatment cycles, followed by up to five 4-week treatment cycles. Within each 5-week treatment cycle, the patient received dexamethasone 40 mg/day PO, once daily on Days 1 to 4, 9 to 12, and 17 to 20 of a 35-day cycle. Within each 4-week treatment cycle, the patient received dexamethasone 40 mg/day PO once daily on Days 1 to 4 of a 28 day cycle.
(§2) During the study, disease response was assessed according to the European Group for Blood and Marrow Transplant (EBMT) criteria as presented in Table C.
See Richardson P G, et al. [submitted NEJM].
Disease progression was determined by Blade criteria as described in Table C and above. […] The date of progression was determined by computer algorithm. P-value from log-rank test adjusted by actual randomization factors. See, Richardson et al., New Engl J Med., submitted.

multiple myeloma [4] = assay: Response (EBMT criteria) in the pharmacogenomic patient subset; conditions: for CR (number of patients) / MR (number of patients) / NC (number of patients) / PD (number of patients) / PR (number of patients): study 039, pharmacogenomic patients
Protocol: as §2
A total of 264 patient samples were assessed for pharmacogenomic analyses. These patient samples were collected from the clinical trials of bortezomib for the treatment of multiple myeloma (see Table E). […] All pharmacogenomic analyses relied on the European Group for Blood and Marrow Transplant (EBMT) criteria of response category.

[5] = best confirmed response, bortezomib n = 315, dexamethasone n = 312
[6] = difference in response rates, bortezomib versus dexamethasone
[7] = pharmacogenomic set of patients, EBMT criteria

| SMILES | survival [3] [months] | Complete Response [3, 5] | Minor Response [3, 5] | Near CR: IF+ [3, 5] | Progressive Disease [3, 5] | SWOG Remission [3, 5] | One-year survival [3] [%] | CR (number of patients) (multiple myeloma [4]) | MR (number of patients) (multiple myeloma [4]) | NC (number of patients) (multiple myeloma [4]) | PD (number of patients) (multiple myeloma [4]) | PR (number of patients) (multiple myeloma [4]) | other results |
| --- | --- | --- | --- | --- | --- | --- | --- | --- | --- | --- | --- | --- | --- |
| CC(C)C[C@H](NC(=O)[C@H](Cc1ccccc1)NC(=O)c1cnccn1)B(O)O [bortezomib, N-pyrazinecarbonyl-L-phenylalanine-L-leucineboronic acid] | 30 | 20 (6) n (%) | 25 (8) n (%) | 21 (7) n (%) | 22 (7) n (%) | 46 (15) n (%) | 80 | 5 | 5 | 19 | 13 | 25 | CR+PR rate (multiple myeloma [1]; 53 of 193 patients): 27%; overall response rate (CR+PR+MR) (multiple myeloma [1]; 67 of 193 patients): 35%; CR+PR rate ([2]; bortezomib 1.0 mg/m^2): 30%; CR+PR rate ([2]; bortezomib 1.3 mg/m^2): 38%; decrease in risk of death ([3]; bortezomib group versus dexamethasone, first year after enrollment): 41%; Difference (95% CI), CR + PR + MR [3, 6]: 0.12 (0.04, 0.19); Difference (95% CI), Complete Response [3, 6]: 0.06 (0.03, 0.09); Difference (95% CI), Minor Response [3, 6]: −0.09 (−0.14, −0.04); Difference (95% CI), Near CR: IF+ [3, 6]: 0.06 (0.03, 0.09); Difference (95% CI), No Change [3, 6]: −0.04 (−0.12, 0.04); Difference (95% CI), Overall Response Rate (CR + PR) [3, 6]: 0.20 (0.14, 0.27); Difference (95% CI), Partial Response [3, 6]: 0.15 (0.08, 0.21); Difference (95% CI), Progressive Disease [3, 6]: −0.06 (−0.11, −0.01); Difference (95% CI), SWOG Remission [3, 6]: 0.09 (0.05, 0.14) |
| C[C@@H]1C[C@H]2[C@@H]3CCC4=CC(=O)C=C[C@]4(C)[C@@]3(F)[C@@H](O)C[C@]2(C)[C@@]1(O)C(=O)CO [dexamethasone] | 24 | 2 (<1) n (%) | 52 (17) n (%) | 3 (<1) n (%) | 41 (13) n (%) | 17 (5) n (%) | 66 | 1 | 11 | 16 | 22 | 13 | Overall Response Rate (CR + PR) [3, 5]: 56 (18) n (%); Partial Response [3, 5]: 54 (17) n (%); CR+PR rate (multiple myeloma [4]; [7]): 22.2%; overall response rate (multiple myeloma [4]; [7]): 39.7% |
